Where “and” joins values, the source holds several entries; their conditions need not be identical. Equal entries are not always repeated. Where two headings read alike, the source gives them in different places.
How the values were obtained:
Assay in all cases: MTT assay for 7-day toxicity assay
Format in all cases: cell-based
[1] = tested on: Colon HT29 (MMR proficient)
Summary of the method: (§1)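 Cells seeded at 400 cells/well, attached overnight, then exposed to compound at 0.5–1000 μM final for 7 days at 37 °C, 5% CO2. Viability read by MTT, with a day-0 plate fixed at drug addition as reference.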

[2] = tested on: Glioma SNB19VR (MGMT−) (TMZ resistant)
[3] = tested on: Glioma U373VR (MGMT low) (TMZ resistant)
[4] = tested on: Melanoma SKMEL-28 (MMR proficient)
Summary of the method: as §1

[5] = tested on: Breast MCF-7 (MMR proficient)
Summary of the method: as §1

[6] = Homo sapiens, HT-29, 168 h, Colon HT29 (MMR proficient), 7-day MTT, single determinations, read-out: GI50
[7] = 168 h, Glioma SNB19VR (MGMT−, TMZ resistant), 7-day MTT, single determinations, read-out: GI50
[8] = 168 h, Glioma U373VR (MGMT low, TMZ resistant), 7-day MTT, single determinations, read-out: GI50
[9] = Homo sapiens, SK-MEL-28, 168 h, Melanoma SKMEL-28 (MMR proficient), 7-day MTT, single determinations, read-out: GI50
[10] = Homo sapiens, MCF7, Breast MCF-7 (MMR proficient), read-out: GI50
[11] = Colon HT29 (MMR proficient), read-out: GI50
[12] = Homo sapiens, HT-29, Colon HT29 (MMR proficient), read-out: GI50
[13] = Glioma SNB19VR (MGMT−) (TMZ resistant), read-out: GI50
[14] = Homo sapiens, SK-MEL-28, Melanoma SKMEL-28 (MMR proficient), read-out: GI50
[15] = Melanoma SKMEL-28 (MMR proficient), read-out: GI50
[16] = Glioma U373VR (MGMT low) (TMZ resistant), read-out: GI50
[17] = Glioma SNB19VR (MGMT−, TMZ resistant), 7-day MTT, single determinations, read-out: GI50
[18] = Glioma U373VR (MGMT low, TMZ resistant), 7-day MTT, single determinations, read-out: GI50
[19] = Melanoma SKMEL-28 (MMR proficient), 7-day MTT, single determinations, read-out: GI50

## C#CCn1nnc2c(C(N)=O)ncn2c1=O [EE-001, 3-Propargyl-8-carbamoylimidazotetrazin-4-one]
[1]; [6]
  GI50: 21.1 µM
[2]; [7]
  GI50: 54.9 µM
[3]; [8]
  GI50: 40.3 µM
[4]; [9]
  GI50: 48.5 µM

## COCn1nnc2c(C(N)=O)ncn2c1=O [PX-020]
[5]; [10]
  GI50: 33.4 µM
[1]; [11]
  GI50: 49.8 µM
[1]; [12]
  GI50: 59.4 µM
[2]; [13]
  GI50: 25.8 µM and 28.9 µM and 27.8 µM and 29.2 µM and 16.8 µM
[4]; [14]
  GI50: 56.1 µM
[4]; [15]
  GI50: 55.1 µM

## C[Si](C)(C)CCOCn1nnc2c(C(N)=O)ncn2c1=O [PX-021]
[5]; [10]
  GI50: 30.3 µM
[1]; [11]
  GI50: 55.8 µM
[1]; [12]
  GI50: 58.5 µM
[4]; [14]
  GI50: 47.1 µM
[4]; [15]
  GI50: 56.8 µM

## C[C@H](c1ccccc1)n1nnc2c(C(N)=O)ncn2c1=O [BB-001, (R)-3-(-1-Phenylethyl)-8-carbamoylimidazotetrazin-4-one]
[2]; [7]
  GI50: 46.6 µM
[3]; [8]
  GI50: 63.7 µM

## NC(=O)c1ncn2c(=O)n(CCl)nnc12 [PX-030]
[3]; [16]
  GI50: 28.9 µM and 34.5 µM

## CCOC(=O)Cn1nnc2c(C(N)=O)ncn2c1=O [PX-016]
[2]; [7]
  GI50: 37.6 µM
[2]; [17]
  GI50: 62 µM
[3]; [8]
  GI50: 57.5 µM
[3]; [18]
  GI50: 71.1 µM
[4]; [9]
  GI50: 92.8 µM
[4]; [19]
  GI50: 91.3 µM

## Cn1nnc2c(C(N)=O)ncn2c1=O [TMZ, 3-Methyl-4-oxo-3,4-dihydro-imidazo[5,1-d][1,2,3,5]tetrazine-8-carboxylic acid amide, reference compound]
[5]; Breast MCF-7 (MMR proficient), 7-day MTT, single determinations
  GI50: 424 µM
[5]; Homo sapiens, MCF7, 168 h, Breast MCF-7 (MMR proficient), 7-day MTT, single determinations
  GI50: 342 µM
[5]; Homo sapiens, MCF7, read-out: TMZ GI50 Average, Breast MCF-7 (MMR proficient), average of Table 1
  GI50: 383 µM
[5]; Homo sapiens, MCF7, Breast MCF-7 (MMR proficient)
  GI50: 383 µM
[1]; Colon HT29 (MMR proficient), 7-day MTT, single determinations, read-out: GI50
  GI50: 578 µM
[1]; [6]
  GI50: 702 µM
[1]; Homo sapiens, HT-29, Colon HT29 (MMR proficient), average of Table 1, read-out: TMZ GI50 Average
  GI50: 640 µM
[1]; [12]
  GI50: 640 µM
[2]; [7]
  GI50: 314 µM
[2]; [13]
  GI50: 280 µM
[2]; [17]
  GI50: 251 µM and 275 µM and 282 µM (2×) and 294 µM and 263 µM
[2]; Glioma SNB19VR (MGMT−, TMZ resistant), average of Table 1, read-out: TMZ GI50 Average
  GI50: 280 µM
[3]; [8]
  GI50: 316 µM
[3]; [16]
  GI50: 289 µM
[3]; [18]
  GI50: 293 µM and 234 µM and 328 µM and 299 µM and 258 µM and 326 µM and 257 µM
[3]; Glioma U373VR (MGMT low, TMZ resistant), average of Table 1, read-out: TMZ GI50 Average
  GI50: 289 µM
[4]; [9]
  GI50: 419 µM
[4]; Homo sapiens, SK-MEL-28, Melanoma SKMEL-28 (MMR proficient), average of Table 1, read-out: TMZ GI50 Average
  GI50: 431 µM
[4]; [14]
  GI50: 431 µM
[4]; [19]
  GI50: 443 µM

— patent US8450479B2, “3-substituted-4-oxo-3,4-dihydro-imidazo[5,1-d][1,2,3,5-tetrazine-8-carboxylic acid amides and their use” (Pharminox Limited, priority 2007, dated 2013)
